Assay results as given in patent US20200022957A1, “KINASE AND UBIQUITIN LIGASE INHIBITORS AND USES THEREOF” (ALDA S.R.L., priority 2015, published 2020).
Peptide text beside a SMILES is read from it. * marks the point of attachment. Cbz = O=C(OCc1ccccc1)*

How the values were obtained:
[1] = test system: ATP7B H1069Q; test: Traffic-based screening of ATP7B H1069Q-GFP rescue in human primary hepatocytes; format: cell-based; details: human primary hepatocytes expressing ATP7B H1069Q-GFP; 24 h
Method: (§1) Transiently ATP7B H1069Q-GFP expressing HeLa cells (A), HEPG2 cells and (C) human primary hepatocytes (E) treated with the inhibitors for 24 hours, cells are processed for immunofluorescence assay to measure the arrival of the ATP7B wt and H1069Q mutant from the ER to Golgi compartment. A, C, E) Normalized Golgi fluorescence of ATP7B is measured and plotted (n >50 cells). B, D, F) EC50 and recue effect (%) compared to the level ATP7B WT Golgi fluorescence calculated from (A), (C) and (E) respectively. […] All the inhibitor drugs except SB202190 are in clinical trial for treatment of various other diseases.
(§2) Cells were transfected with ATP7B-WT-GFP or ATP7B-H1069Q-GFP, incubated overnight with 200 μM BCS and/or drugs. Fixed cells were further labeled for TGN46 to mark and visualize the Golgi area under a confocal microscope. Under low copper conditions ATP7B-WT traffics to the Golgi from the ER, while ATP7B-H1069Q is retained within the ER. If the drug treatments induce the rescue of trafficking from the ER to the Golgi, the ATP7B-H1069Q-GFP fluorescence in the Golgi area increases. This is measured by quantifying (in 10 different microscopy fields in 100 cells) the increased in fluorescence of ATP7BWT-GFP or ATP7BH1069Q-GFP in the Golgi area (marked by TGN46) and normalizing this value to total cell fluorescence […]

[2] = test system: ATP7B H1069Q; test: Morphological assay of ATP7B H1069Q exit from ER to Golgi in HeLa cells (fluorescence microscopy); format: cell-based, human; details: HeLa cells expressing ATP7B H1069Q-GFP; 24 h
Method: Cells were transfected with ATP7B-WT-GFP or ATP7B-H1069Q-GFP, incubated overnight with 200 μM BCS and/or drugs. Fixed cells were further labeled for TGN46 to mark and visualize the Golgi area under a confocal microscope. Under low copper conditions ATP7B-WT traffics to the Golgi from the ER, while ATP7B-H1069Q is retained within the ER. If the drug treatments induce the rescue of trafficking from the ER to the Golgi, the ATP7B-H1069Q-GFP fluorescence in the Golgi area increases. This is measured by quantifying (in 10 different microscopy fields in 100 cells) the increased in fluorescence of ATP7BWT-GFP or ATP7BH1069Q-GFP in the Golgi area (marked by TGN46) and normalizing this value to total cell fluorescence
CFBE or HeLa cells (in case of ATP7B) were transfected with constructs encoding the indicated mutant proteins and treated with JNKi II for 48 h.

[3] = test system: ATP7BH1069Q; test: Copper estimation in HepG2 cells overexpressing ATP7BH1069Q; format: cell-based, human; details: 1 μM, 24 hours, 200 μM copper sulphate for the last 2 hours
Method: FIG. 14: The VX-745 and BIRB-796 correctors reduce Copper levels in cells expressing ATP7BH1069Q mutant. HepG2 cells overexpressing indicated ATP7B constructs were incubated with 1 μM each of VX-745, BIRB-796 for 24 hours, for the last 2 hours of incubation with the inhibitors 200 μM copper sulphate is added to the cells with or without 100 μM BCS (copper chelator) as indicated. Cells were incubated with HBSS for 3 hours before lysed and used for copper estimation. Fold change in copper normalized to control is plotted (n=4). Both VX-745 and BIRB-796 reduced Copper levels in ATP7BH1069Q expressing cells (BCS is used in the assay as a control for the sensitivity of the assay).
Cells are lysed in RIPA buffer (150 mM NaCl, 1% Triton X-100, 0.5% deoxycholic acid, 0.1% SDS, 20 mM Tris-HCl, pH 7.4). 500 μg of total protein lysate in 100 μl is taken for copper estimation using Copper assay kit (MAK127 sigma-aldrich) according to the manufacturer's protocol.
ATP7B protein functions in the excretion of copper out of cells and tissue. As ATP7B H1069Q trafficking to the plasma membrane is impaired, the cells cannot excrete the copper, which leads to higher level of intracellular copper. If the corrector drugs promote the correct localization of the mutant, then the copper should be excreted, leading to lower intracellular levels.

[4] = test system: ATP7B H1069Q; test: Traffic-based screening of ATP7B H1069Q-GFP rescue in HEPG2 cells; format: cell-based, human; details: HEPG2 cells expressing ATP7B H1069Q-GFP; 24 h
Method: as §1, §2

[5] = test system: F508del-CFTR; test: F508del-CFTR proteostasis by western blotting (ER band B / Golgi-processed band C) in CFBE cells; format: cell-based, human; details: for levels of band B and band C of F508del-CFTR: concentration series; for decrease in levels of F508del-CFTR: rapid, abolished by MLK3 downregulation
Method: Cells were washed three times in ice-cold Dulbecco's phosphate-buffered saline, and lysed in RIPA buffer (150 mM NaCl, 1% Triton X-100, 0.5% deoxycholic acid, 0.1% SDS, 20 mM Tris-HCl, pH 7.4), supplemented with protease inhibitor cocktail and phosphatase inhibitors. The lysates were clarified by centrifugation at 15000×g for 15 min, and the supernatants were resolved by SDS-PAGE. BCA Protein Assay kit (Pierce) was used to quantitate protein levels before loading. The western blots were decorated with appropriate antibodies and developed using ECL. The blots were then exposed to x-ray films and exposure time was varied to obtain optimal signal. The x-ray films were then scanned and the bands were quantitated using ImageJ gel-analysis tool. The protein concentration and the exposures used for quantitation of the blots were optimized to be in a linear range of detection.
Inventors then turned to experimental validation of the role of the CORE genes in the regulation of F508del-CFTR proteostasis. Experiments were carried out using a characterised biochemical assay that detects both the amount of core-glycosylated CFTR trapped in the ER (band B with Western blotting) and the amount of CFTR fully glycosylated in the Golgi (most of which presumably resides at the PM; band C with Western blotting).

[6] = test system: proteasome; test: Proteasome ZsProsensor-1 fluorescence in CFBE cells; format: cell-based, human; details: MG132 20 μg/ml for 3 h, positive control
Method: CFBE cells treated with MLK3 or JNK2 siRNA for 72 h were transfected with Proteasome ZsProsensor-1 for the final 24 h, and the levels Proteasome ZsProsensor-1 monitored by fluorescence microscopy. Treatment with MG132 (20 μg/ml for 3 h), a proteasomal inhibitor, was used as a positive control.

[7] = test system: JNK; test: phospho-c-jun levels by western blotting as a measure of JNK inhibition in CFBE cells; format: cell-based, human; details: 24 h, oxozeaenol 5 μM
Method: A. CFBE cells were treated with indicated JNK inhibitors for 24 h and processed for western blotting. The levels of phospho-c-jun as a measure of JNK inhibition was monitored. […] B. CFBE cells were treated with TAK1 or MLK3 siRNA as indicated and changes in F508del-CFTR proteostasis were monitored by western blotting.
C. CFBE cells were treated with 5 μM oxozeaenol for 48 h, or with MLK3 siRNA, or with both, and the correction of the F508del-CFTR folding/trafficking defect was monitored by changes in the levels of band C. There was no additive effect observed with the combination of MLK3 downregulation and oxozeaenol treatment. The quantitated band C levels are expressed as mean±SD (n>3). D. CFBE cells were treated with 5 μM oxozeaenol for 24 h, and the activity of the JNK pathway was measured by western blotting for phospho c-jun levels and F508del-CFTR. […] E. CFBE cells were treated with flunarizine (at concentrations 6.25-50 μM) targeting the CAMKK2 pathway for 48 h and the effect on F508del-CFTR proteostasis measured by western blotting. Treatment with flunarizine increased the levels of band C of F508del-CFTR. […] F. CFBE cells transiently transfected with the P-glycoprotein mutant (P-gp DY490), the NCC mutant (R948X), or the hERG mutant (G601S) were treated with JNKi II for 24 h, and the effect of the drug on their proteostasis monitored by western blotting. […]

[8] = test system: ATP7BH1069Q; test: Immunofluorescence assay for correction of ATP7B: cells with ATP7BH1069Q signal in the ER, HeLa cells; format: cell-based, human; details: 24 h, SB202190 5 μM, VX-745 1 μM, SP600125 2 μM, Oxozeaenol 5 μM, 100 μM CuSO4 2 h
Method: (A) HeLa cells were infected with Ad-ATP7BWT-GFP (Chesi et al., 2016) or Ad-ATP7BH1069Q-GFP, incubated overnight with 200 μM BCS, and incubated for an additional 2 h with 100 μM CuSO4. In response to Cu, ATP7BWT traffics from the Golgi to PM and vesicle, while ATP7BH1069Q are retained within the ER under high Cu conditions. Addition of p38 inhibitor SB202190 (5 μM), VX-745(1 μM), JNK inhibitor SP600125 (2 μM) and Oxozeaenol (5 μM) (as indicated in corresponding panels) to the cells 24 h corrects ATP7BH1069Q from the ER to PM and vesicles (arrows) (B) Cells were treated as in panel A. The percentage of the cells (average±SD, n=50 fields) with an ATP7B signal in the ER, were calculated.
Cells were fixed with 4% paraformaldehyde in 0.2 M HEPES for 10 mins, permeabilized, labeled with primary and secondary antibodies, and examined with a ZEISS LSM 700 confocal microscope equipped with a 63×1.4 numerical aperture oil objective. The cells were scored based on the disappearance of ATP7B from the ER.

[9] = test system: F508del-CFTR; details: primary human bronchial epithelial cells (Trzcinska-Daneluti et al. 2012); cited from earlier work

## Cc1ccc(-n2nc(C(C)(C)C)cc2NC(=O)Nc2ccc(OCCN3CCOCC3)c3ccccc23)cc1 [BIRB-796]
[1]
  rescue of ATP7B H1069Q (ER to Golgi): rescue H1069Q potently
[2]
  rescue of ATP7B H1069Q localization (ER exit to the Golgi compartment): potently rescue
[3]
  Copper levels in ATP7BH1069Q expressing cells: reduced
[4]
  rescue of ATP7B H1069Q (ER to Golgi): rescue H1069Q potently

## C=C(c1ccc(C(=O)O)cc1)c1cc2c(cc1C)C(C)(C)CCC2(C)C [Bexarotene]
[2]
  rescue of ATP7B H1069Q localization (ER exit to the Golgi compartment): potently rescue
[5]; 48 h
  levels of band B and band C of F508del-CFTR: robust increases

## CC(=O)Nc1ccc(C(=O)NC(C)(C)C)cc1 [CPI-1189]
[2]
  rescue of ATP7B H1069Q localization (ER exit to the Golgi compartment): potently rescue

## C=C(C)[C@@H]1CCC(C)=C[C@H]1c1c(O)cc(CCCCC)cc1O [Cannabidiol]
[2]
  rescue of ATP7B H1069Q localization (ER exit to the Golgi compartment): potently rescue

## CC(O)C(=O)O.CN1CCN(c2ccc3nc(-c4c(N)c5c(F)cccc5[nH]c4=O)[nH]c3c2)CC1 [Dovitinib lactate]
[5]; 48 h
  levels of band B and band C of F508del-CFTR: robust increases

## Cc1cc(Nc2cc(N3CCN(C)CC3)nc(/C=C/c3ccccc3)n2)n[nH]1 [ENMD-2076]
[2]
  rescue of ATP7B H1069Q localization (ER exit to the Golgi compartment): potently rescue

## Fc1ccc(C(c2ccc(F)cc2)N2CCN(C/C=C/c3ccccc3)CC2)cc1 [Flunarizine]
[5]; 48 h
  correction of F508del-CFTR (levels of band C): increased

## OO [H2O2]
[5]; H2O2 at non-toxic concentrations, within a few minutes
  F508del-CFTR levels: marked drop

## N#Cc1c(NC(=O)c2cccc3ccccc23)sc2c1CCCC2 [JNKi IX]
[5]; 48 h
  levels of band B and band C of F508del-CFTR: robust increases

## O=[N+]([O-])c1cnc(Sc2nc3ccccc3s2)s1 [JNKi XI]
[5]; 48 h
  levels of band B and band C of F508del-CFTR: robust increases

## COC(=O)[C@@]1(O)C[C@H]2O[C@]1(C)n1c3ccccc3c3c4c(c5c6ccccc6n2c5c31)C(=O)NC4 [K252a]
[5]; 48 h
  correction of F508del-CFTR (levels of band C): no clear effects

## CC(C)C[C@@H](C=O)NC(=O)[C@H](CC(C)C)NC(=O)[C@H](CC(C)C)NC(=O)OCc1ccccc1 [MG132] (Cbz-Leu-Leu-Leu-aldehyde)
[6]
  fluorescence levels of ZsProsensor-1 compared to untreated cells: increases

## COc1cc(O)c2c(c1)/C=C/C[C@H](O)[C@H](O)C(=O)/C=C\C[C@H](C)OC2=O [Oxozeaenol, (5Z)-7-oxozeaenol]
[7]
  phospho-c-jun levels: reduced
[5]; 48 h
  levels of band B and band C of F508del-CFTR: markedly increased
[8]
  percentage of the cells exhibiting ATP7BH1069Q in the ER: reduced
[9]
  correction of the F508del-CFTR proteostasis defect: effective

## Cc1ccc(Nc2nccc(N(C)c3ccc4c(C)n(C)nc4c3)n2)cc1S(N)(=O)=O [Pazopanib]
[5]; 48 h
  levels of band B and band C of F508del-CFTR: robust increases

## Oc1ccc(-c2nc(-c3ccncc3)c(-c3ccc(F)cc3)[nH]2)cc1 [SB202190]
[8]
  percentage of the cells exhibiting ATP7BH1069Q in the ER: reduced

## O=C(O)c1ccc2c3c1cccc3c(=O)n1c3ccccc3nc21 [STO-609]
[5]; 48 h
  correction of F508del-CFTR (levels of band C): did not show any effect

## O=c1ncn2nc(Sc3ccc(F)cc3F)ccc2c1-c1c(Cl)cccc1Cl [VX-745]
[1]
  rescue of ATP7B H1069Q (ER to Golgi): rescue H1069Q potently
[8]
  percentage of the cells exhibiting ATP7BH1069Q in the ER: reduced
[3]
  Copper levels in ATP7BH1069Q expressing cells: reduced
[4]
  rescue of ATP7B H1069Q (ER to Golgi): rescue H1069Q potently

## Cc1ccc(NC(=O)C2(c3ccc4c(c3)OC(F)(F)O4)CC2)nc1-c1cccc(C(=O)O)c1 [VX-809]
[5]; 48 h
  level of ER-localised band B of F508del-CFTR: limited increase
[5]; VX-809 as reference for correction
  increase of band C levels over control: 4-5 fold

## O=C1c2c(O)ccc(O)c2C(=O)c2c(NCCNCCO)ccc(NCCNCCO)c21 [mitoxantrone]
[5]; 48 h
  levels of band B and band C of F508del-CFTR: potently increase

## COc1ccc(CCN(C)CCCC(C#N)(c2ccc(OC)c(OC)c2)C(C)C)cc1OC (stereo not drawn) [verapamil]
[5]; 48 h
  correction of F508del-CFTR (levels of band C): did not show any effect

## TGF-β
[5]
  decrease in levels of F508del-CFTR: 50%

## TNF-α
[5]
  decrease in levels of F508del-CFTR: 50%
